Measured values published in US8343934B2, “Diverse lead compound autotaxin inhibitors” (University of Memphis, priority 2009, dated 2013).
Values joined by “and” are separate entries in the source; they are usually repeats but may differ in a detail not shown here. Equal entries are not always repeated.

Target: T1, ATX (Homo sapiens, UniProt Q13822)
T1 construct: conditioned serum-free medium (CCM) from MDA-MB-435 cells as the source of ATX; endogenous in cells; host or cells: MDA-MB-435 cells (about 10x concentrated conditioned serum-free medium)
Assay: ATX inhibition assay (FS-3 substrate)
Format: biochemical
Settings: for % Response: preliminary screen, FS-3 hydrolysis at one hour, normalized to vehicle control, mean±S.D., same values given at 10 μM in Table 5
Protocol: ATX inhibition was assayed using the substrate FS-3 (Echelon Biosciences, Inc., Salt Lake City, Utah, USA). The FS-3 assay used ˜10 times concentrated conditioned serum-free medium (CCM) from MDA-MB-435 cells as the source of ATX, while CCM comprised one-third of the total volume. The final volume for FS-3 was comprised of the substrate at varying concentrations and 30 μM charcoal-stripped fatty acid free BSA (Sigma Aldrich) in assay buffer (1 mM each CaCl2 and MgCl2, 5 mM KCl, 140 mM NaCl, 50 mM Tris pH 8.0).
All assays were performed in 96-well plates with data read at 1 minute intervals by a Synergy2 system (BioTek, Winooski, Vt.). The fluorescence produced upon the hydrolysis of FS-3 was monitored using an excitation wavelength of 485 nm and an emission wavelength of 528 nm at 37° C. (Ferguson et al., 2006). […] All readings were normalized to vehicle control after subtraction of fluorescence in the absence of CCM. Data are shown as the mean±S.D. of at least three wells.

[1] = Calculated IC50 data for the 30 active compounds, FS-3 substrate

With `Cc1ccc(N=Nc2c(S(=O)(=O)[O-])cc3cc(NC(=O)Nc4ccc5c(O)c(N=Nc6ccc7cc(S(=O)(=O)[O-])ccc7c6)c(S(=O)(=O)[O-])cc5c4)ccc3c2O)c(C)c1.[Na+].[Na+].[Na+]` [compound 65575] the IC50 [1] was 18.6 µM and the “% Response” value was 33 ± 3.7%.

For `Nc1ccc(N=Nc2ccc(-c3ccc(N=Nc4c(S(=O)(=O)O)cc5cc(S(=O)(=O)O)c(N=Nc6ccc([N+](=O)[O-])cc6)c(N)c5c4O)cc3)cc2)c2cc(S(=O)(=O)O)ccc12.Nc1ccc(N=Nc2ccc(-c3ccc(N=Nc4c(S(=O)(=O)O)cc5cc(S(=O)(=O)O)c(N=Nc6ccc([N+](=O)[O-])cc6)c(N)c5c4O)cc3)cc2)c2ccc(S(=O)(=O)O)cc12` [compound 77520], the IC50 [1] was 4.07 µM and the “% Response” value was 32 ± 2.7%.

`Cc1cc(N)ccc1N=Nc1ccc(Sc2ccc(N=Nc3c(S(=O)(=O)O)cc4cc(S(=O)(=O)O)c(N=Nc5ccc([N+](=O)[O-])cc5)c(N)c4c3O)cc2)cc1.[Na+]` [compound 65571] was tested, and the “% Response” value was 74 ± 5.5%.

With `Cc1ccccc1N=Nc1c(S(=O)(=O)[O-])cc2cc(NC(=O)Nc3ccc4c(O)c(N=Nc5ccc6cc(S(=O)(=O)[O-])ccc6c5)c(S(=O)(=O)[O-])cc4c3)ccc2c1O.[Na+].[Na+].[Na+]` [compound 58057] the IC50 [1] was 11.6 µM and the “% Response” value was 29 ± 3.6%.

In the case of `Nc1ccc2cc(S(=O)(=O)[O-])c(N=Nc3ccc(-c4ccc(N=Nc5c(S(=O)(=O)[O-])cc6cc(S(=O)(=O)[O-])cc(N)c6c5O)cc4)cc3)c(O)c2c1.[Na+].[Na+].[Na+]` [compound 75779], the IC50 [1] is reported as 1.26 µM and the “% Response” value is reported as 20 ± 5.7%.

For `CCCCCCCCCCCCCCCCOc1ccc(S(=O)(=O)N/N=c2/sc3ccc(S(=O)(=O)O)cc3n2C)cc1C(=O)O` [compound 270069], the “% Response” value was 97 ± 2.4%.

For `O=C(Nc1cccc(C(=O)Nc2ccc3cc(S(=O)(=O)O)cc(S(=O)(=O)O)c3c2)c1)Nc1cccc(C(=O)Nc2ccc3cc(S(=O)(=O)O)cc(S(=O)(=O)O)c3c2)c1.[Na+]` [compound 12856], the “% Response” value was 71 ± 5.4%.

With `Nc1ccc(N=Nc2ccc(-c3ccc(N=Nc4c(S(=O)(=O)[O-])cc5cc(S(=O)(=O)[O-])c(N=Nc6cccc([N+](=O)[O-])c6)c(N)c5c4O)cc3)cc2)c2cc(S(=O)(=O)[O-])ccc12.[Na+].[Na+].[Na+]` [compound 79742] the IC50 [1] was 7.04 µM and the “% Response” value was 36 ± 2.5%.

`O=C(/C=C/c1ccc(O)c(O)c1)NCC(=O)NC(Cc1ccccc1)C(=O)O` (stereo not shown) [compound 332542] was tested, and the “% Response” value was 96 ± 3.7%.

In the case of `CC(C)(C)OC(=O)NC(CC(Cc1ccccc1)C(=O)O)C(=O)NC(CC(Cc1ccccc1)C(=O)O)C(=O)NC(CC(Cc1ccccc1)C(=O)O)C(=O)NCC(=O)Oc1ccc([N+](=O)[O-])cc1` (stereo not shown) [compound 341348], the IC50 [1] is reported as 2.5 µM and the “% Response” value is reported as 43 ± 2.8%.

In the case of `O=C1C(c2[nH]c3ccc(S(=O)(=O)O)cc3c2O)=Nc2ccc(S(=O)(=O)O)cc21` [compound 8646], the “% Response” value is reported as 88 ± 9.2%.

`COc1nc(Nc2ccc(/C=C/c3ccc(Nc4nc(OC)nc(N(CCO)CCO)n4)cc3S(=O)(=O)[O-])c(S(=O)(=O)[O-])c2)nc(N(CCO)CCO)n1.[Na+].[Na+]` [compound 306423] was tested, and the “% Response” value was 94 ± 3.6%.

With `O=C(O)c1ccccc1-c1c2ccc(=Nc3ccccc3)cc-2oc2cc(Nc3ccc(S(=O)(=O)O)cc3)ccc12.[Na+]` [compound 11242] the “% Response” value was 73 ± 3.7%.

In the case of `NC(=N\N=C/c1ccccc1S(=O)(=O)O)/C(N)=N\N=C/c1ccccc1S(=O)(=O)O.[Na+]` [compound 47471], the “% Response” value is reported as 95 ± 3.0%.

With `COc1ccc(/C=N/NC(=O)C(=O)N/N=C/c2ccc(OC)c(S(=O)(=O)O)c2)cc1S(=O)(=O)O` [compound 56207] the “% Response” value was 100 ± 4.2%.

For `O=C(Nc1ccc2cc(S(=O)(=O)O)cc(S(=O)(=O)O)c2c1)Nc1ccc2cc(S(=O)(=O)O)cc(S(=O)(=O)O)c2c1.[Na+]` [compound 12857], the “% Response” value was 100 ± 7.3%.

With `Nc1c(N=Nc2ccc([N+](=O)[O-])cc2)c(S(=O)(=O)O)cc2cc(S(=O)(=O)O)c(N=Nc3ccc(-c4ccc(N=Nc5ccc(O)cc5)cc4)cc3)c(O)c12.[Na+]` [compound 7234] the IC50 [1] was 7.02 µM and the “% Response” value was 49 ± 6.1%.

In the case of `O=C(Nc1ccc2c(O)c(N=Nc3ccccc3)c(S(=O)(=O)[O-])cc2c1)Nc1ccc2c(O)c(N=Nc3ccccc3)c(S(=O)(=O)[O-])cc2c1.[Na+].[Na+]` [compound 47749], the “% Response” value is reported as 103 ± 58.1%.

For `Nc1ccc(N=Nc2ccc(-c3ccc(N=Nc4c(S(=O)(=O)O)cc5cc(S(=O)(=O)O)c(N=Nc6cccc([N+](=O)[O-])c6)c(N)c5c4O)cc3)cc2)c(N)c1.[Na+]` [compound 79593], the IC50 [1] was 6.36 µM and the “% Response” value was 37 ± 2.6%.

`Nc1cccc(N=Nc2c(S(=O)(=O)[O-])cc3cc(NC(=O)Nc4ccc5c(O)c(N=Nc6cccc(N)c6)c(S(=O)(=O)[O-])cc5c4)ccc3c2O)c1.[Na+].[Na+]` [compound 47750] was tested, and the “% Response” value was 68 ± 5.8%.

In the case of `O=C1C(Cl)=C(Nc2ccc(C(=O)Nc3ccc4cc(S(=O)(=O)O)cc(S(=O)(=O)O)c4c3)cc2)C(=O)C(Cl)=C1Nc1ccc(C(=O)Nc2ccc3cc(S(=O)(=O)O)cc(S(=O)(=O)O)c3c2)cc1.[Na+]` [compound 12859], the IC50 [1] is reported as 0.805 µM and the “% Response” value is reported as 27 ± 2.8%.

For `Nc1cccc(N=Nc2c(S(=O)(=O)[O-])cc3cc(Nc4ccc5c(O)c(N=Nc6cccc(N)c6)c(S(=O)(=O)[O-])cc5c4)ccc3c2O)c1.[Na+].[Na+]` [compound 58055], the “% Response” value was 89 ± 3.9%.

For `Nc1ccc2cc(S(=O)(=O)O)cc(O)c2c1N=Nc1ccc(-c2ccc(N=Nc3c(S(=O)(=O)O)cc4cc(S(=O)(=O)O)c(N=Nc5ccc([N+](=O)[O-])cc5)c(N)c4c3O)cc2)cc1` [compound 65855], the IC50 [1] was 17.4 µM and the “% Response” value was 43 ± 3.8%.

`Cc1ccccc1N=C(N)Nc1ccccc1C.Nc1c(N=Nc2ccc([N+](=O)[O-])cc2)c(S(=O)(=O)O)cc2cc(S(=O)(=O)O)c(N=Nc3ccc(Sc4ccc(N=Nc5ccc(O)cc5)cc4)cc3)c(O)c12` [compound 80902] was tested, and the “% Response” value was 73 ± 4.5%.

For `Nc1ccc(C(=O)Nc2cccc(C(=O)Nc3ccc4c(O)c(N=Nc5ccc(N=Nc6ccc(S(=O)(=O)[O-])cc6)cc5)c(S(=O)(=O)[O-])cc4c3)c2)cc1.[Na+].[Na+]` [compound 47767], the “% Response” value was 61 ± 3.7%.

For `O=C(Nc1ccc(C(=O)Nc2cc(S(=O)(=O)O)cc3cccc(S(=O)(=O)O)c23)cc1)Nc1ccc(C(=O)Nc2cc(S(=O)(=O)O)cc3cccc(S(=O)(=O)O)c23)cc1.[Na+]` [compound 12188], the “% Response” value was 105 ± 8.0%.

With `O=C(O)c1ccccc1N=N/C(=N\Nc1cc(S(=O)(=O)O)ccc1O)c1ccccc1` [compound 5359] the “% Response” value was 94 ± 2.6%.

In the case of `Cc1ccc(Nc2cccc3c2C(=O)c2cccc(Nc4ccc(C)c(S(=O)(=O)O)c4)c2C3=O)cc1S(=O)(=O)O` [compound 7804], the “% Response” value is reported as 96 ± 6.4%.

`COc1ccc(C(=O)Nc2ccc(/C=C/c3ccc(NC(=O)c4ccc(OC)cc4)cc3S(=O)(=O)O)c(S(=O)(=O)O)c2)cc1.[Na+]` [compound 12858] was tested, and the “% Response” value was 98 ± 7.4%.

For `O=C(Nc1ccc(Sc2ccc(N=Nc3c(O)c(S(=O)(=O)O)cc4cc(S(=O)(=O)O)ccc34)cc2)cc1)c1ccc(N=Nc2c(O)c(S(=O)(=O)O)cc3cc(S(=O)(=O)O)ccc23)cc1` [compound 65860], the “% Response” value was 66 ± 4.4%.

`Nc1c(N=Nc2ccc(S(=O)(=O)O)cc2)cc(S(=O)(=O)O)c2ccc(N=Nc3ccc([N+](=O)[O-])cc3)c(O)c12.[Na+]` [compound 47725] was tested, and the “% Response” value was 116 ± 4.2%.

`O=C(O)c1ccc2c(c1Nc1ccc(-c3ccc(Nc4c(C(=O)O)ccc5c4C(=O)c4ccccc4C5=O)cc3)cc1)C(=O)c1ccccc1C2=O` [compound 7581] was tested, and the “% Response” value was 70 ± 4.8%.

For `Nc1c(N=Nc2ccc([N+](=O)[O-])cc2)c(S(=O)(=O)O)cc2cc(S(=O)(=O)O)c(N=Nc3ccc(-c4ccc(O)cc4)cc3)c(O)c12.[Na+]` [compound 65560], the “% Response” value was 56 ± 4.9%.

For `Nc1ccc(S(=O)(=O)c2ccc(NCNC(CSSCC(NCNc3ccc(S(=O)(=O)c4ccc(N)cc4)cc3)C(=O)O)C(=O)O)cc2)cc1` (stereo not shown) [compound 39858], the “% Response” value was 93 ± 4.6%.

In the case of `COc1ccc(/C=N\NC(=O)N/N=C/c2ccc(OC)c(S(=O)(=O)O)c2)cc1S(=O)(=O)O.[Na+]` [compound 48775], the “% Response” value is reported as 98 ± 5.5%.

`COc1ccc(/C=N/N=C(N)/C(N)=N/N=C/c2ccc(OC)c(S(=O)(=O)O)c2)cc1S(=O)(=O)O.[Na+]` [compound 46954] was tested, and the “% Response” value was 92 ± 3.9%.

In the case of `Nc1ccc2cc(S(=O)(=O)O)c(/N=N/c3ccc(-c4ccc(/N=N/c5c(S(=O)(=O)O)cc6cc(S(=O)(=O)O)cc(N)c6c5O)cc4)cc3)c(O)c2c1` [NSC 75779], the “% ATX Acitivity (10 μM)” value (10 μM compound, FS-3 substrate) is reported as 20 ± 5.7% and the IC50 (Table 5, FS-3 substrate) is reported as 1.26 µM.

`Cc1ccc(C)c(N=Nc2c(S(=O)(=O)O)cc3cc(NC(=O)Nc4ccc5c(O)c(N=Nc6ccc7cc(S(=O)(=O)O)ccc7c6)c(S(=O)(=O)O)cc5c4)ccc3c2O)c1.[Na+]` [compound 65576] was tested, and the IC50 [1] was 15.5 µM and the “% Response” value was 35 ± 5.8%.

For `CC(=O)Nc1ccc(N=Nc2c(S(=O)(=O)O)cc3cc(NC(=O)Nc4ccc5c(O)c(N=Nc6ccccc6)c(S(=O)(=O)O)cc5c4)ccc3c2O)cc1.[Na+]` [compound 47762], the “% Response” value was 83 ± 5.5%.

With `Cc1ccc(C(=O)Nc2ccc(S(=O)(=O)O)c3cc(S(=O)(=O)O)cc(S(=O)(=O)O)c23)cc1NC(=O)c1cccc(NC(=O)Nc2cccc(C(=O)Nc3cc(C(=O)Nc4ccc(S(=O)(=O)O)c5cc(S(=O)(=O)O)cc(S(=O)(=O)O)c45)ccc3C)c2)c1` [compound 34936] the “% Response” value was 73 ± 9.0% and 83 ± 5.8%.
